These results are taken from patent US11407825B2, “NaPi2b-targeted polymer antibody-drug conjugates and methods of use thereof” (Mersana Therapeutics, Inc., priority 2018, dated 2022).

This series in a line: Plasma PK profile in patients dosed with XMT-1536. Format: in vivo, human. The following applies: after XMT-1536. On the procedure: The PK profile of the active ingredient of XMT-1536, its release product and selected metabolites are determined for each patient by non-compartmental analysis using standard PK software (e.g., Phoenix WinNonlin). PK parameters per patient include time of maximum observed concentration (tmax), maximum concentration (Cmax), and area under the concentration curve for the last measurable concentration (AUC0-last). When the terminal elimination phase is identified, additional parameters such as elimination half-life, clearance, and volume of distribution are determined.
The plasma PK profile for the analytes (total antibody; conjugated drug (AF-HPA); free drug (AF-HPA) and the drug metabolite auristatin F (AF)) was determined in blood samples from 30 patients (3 mg/m^2, n=1; 6 mg/m^2, n=1; 12 mg/m^2, n=7; 20 mg/m^2, n=15; 30 mg/m^2, n=5; 40 mg/m^2, n=1). […] The PK characteristics is consistent with that reported for other approved antibody-drug conjugates or those currently in clinical development.

Structures are written as SMILES. Square brackets hold non-standard residues; d marks the D form. Peptide text beside a SMILES is read from it. * marks the point of attachment. Dolaproine = CO[C@@H]([C@@H]1CCCN1)[C@@H](C)C(=O)O; Dil = CC[C@H](C)[C@H](NC)[C@@H](CC(=O)O)OC; NMe2Val = CC(C)[C@@H](C(=O)*)N(C)C; NH(3-hydroxypropyl) = OCCCN*

Turning to `CC[C@H](C)[C@@H]([C@@H](CC(=O)N1CCC[C@H]1[C@H](OC)[C@@H](C)C(=O)N[C@@H](Cc1ccccc1)C(=O)O)OC)N(C)C(=O)[C@@H](NC(=O)[C@H](C(C)C)N(C)C)C(C)C` [AF, auristatin F] (NMe2Val-V[Dil][Dolaproine]F-OH), the “accumulation after administration of multiple doses” value was “no accumulation” and the “systemic exposure compared to that of the conjugated drug” value is recorded as “low systemic expose”.
Turning to `CC[C@H](C)[C@@H]([C@@H](CC(=O)N1CCC[C@H]1[C@H](OC)[C@@H](C)C(=O)N[C@@H](Cc1ccccc1)C(=O)NCCCO)OC)N(C)C(=O)[C@@H](NC(=O)[C@H](C(C)C)N(C)C)C(C)C` [AF-HPA, Auristatin F-hydroxypropyl amide] (NMe2Val-V[Dil][Dolaproine]F-{NH(3-hydroxypropyl)}), the “accumulation after administration of multiple doses” value is recorded as “no accumulation” and the “systemic exposure compared to that of the conjugated drug” value is “low systemic expose”.
